Experiment [1] addresses T1, pre-synaptic 5-HT1A receptor (Mus musculus, UniProt Q64264).
T1 construct: from tissue; host or cells: whole animal, male CD-1 mice
T1 sequence (Q64264 1-421): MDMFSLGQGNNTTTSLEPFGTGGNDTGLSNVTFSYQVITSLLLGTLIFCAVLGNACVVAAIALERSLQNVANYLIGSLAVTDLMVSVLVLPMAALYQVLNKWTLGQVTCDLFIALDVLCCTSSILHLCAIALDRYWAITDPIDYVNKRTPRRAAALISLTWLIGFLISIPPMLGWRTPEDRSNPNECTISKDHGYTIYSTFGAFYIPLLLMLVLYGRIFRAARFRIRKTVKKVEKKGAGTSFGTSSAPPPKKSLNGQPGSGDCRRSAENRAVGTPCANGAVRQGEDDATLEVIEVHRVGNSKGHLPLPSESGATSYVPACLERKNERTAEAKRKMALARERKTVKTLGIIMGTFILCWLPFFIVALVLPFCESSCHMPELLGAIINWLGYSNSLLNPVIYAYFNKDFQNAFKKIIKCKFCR
The experiment is described as follows: Antagonism of hypothermia induced by 8-OH-DPAT in mice (pre-synaptic antagonism). It is filed as in vivo. To be noted: for ED50: mouse, iv, read-out: Pre-synaptic 5-HT1A ID50, heading: Pre-synaptic 5-HT1A ID50, dose blocking 50% of hypothermia induced by 0.5 mg/kg s.c. 8-OH-DPAT in mice, compound i.v. The protocol:
The antagonistic effect of the 5-HT1A receptor antagonists of the invention on hypothermia induced by 8-OH-DPAT was evaluated by the method of Moser (Moser, Eur.J.Pharmacol., 193:165, 1991) with minor modifications as described below. Male CD-1 mice (28-38 g) obtained from Charles River (Italy) were housed in a climate-controlled room (temperature 22±2 C.; humidity 55±15%) and maintained on a 12 h light/dark cycle with free access to food and water. On the day of experiment, mice were placed singly in clear plastic boxes under the same ambient conditions. Body temperature was measured by the insertion of a temperature probe (Termist TM-S, LSI) into the rectum to a depth of 2 cm. Rectal temperature was measured immediately prior to intravenous injection of the test compound. All animals then received 8-OH-DPAT (0.5 mg/kg s.c.) and their temperature was measured 30 min later. For each animal, temperature changes were calculated with respect to pretreatment values and the mean values were calculated for each treatment group. A linear regression equation was used in order to evaluate ID50 values, defined as the dose of antagonist needed to block 50% of the hypothermic effect induced by 0.5 mg/kg 8-OH-DPAT administered subcutaneously.

The next experiment deals with α2 adrenergic receptors. Nature of the experiment: Radioreceptor binding, native α2-adrenoceptors, rat cerebral cortex ([3H]rauwolscine). The conditions noted are these: Table 3A not given. The protocol: (§1) Binding studies on native α2 adrenergic receptors (Diop L. et al, J. Neurochem. 41, 710-715, 1983), and 5-HT2A serotonergic receptors (Craig A. and Kenneth J., Life Sci. 38, 117-127, 1986) were carried out in membranes of rat cerebral cortex. Male Sprague Dawley rats (200-300 g, SD Harlan/Nossan, Italy) were killed by cervical dislocation and cerebral cortexes were excised and immediately frozen in liquid nitrogen and stored at −70° C. until use. Tissues were homogenized (2×20 sec) in 50 volumes of cold 50 mM Tris-HCl buffer pH 7.4, using a Polytron homogenizer (speed 7). Homogenates were centrifuged at 49000×g for 10 min, resuspended in 50 volumes of the same buffer, incubated at 37° C. for 15 min and centrifuged and resuspended twice more. […] Non-specific binding was determined in the presence of 10 μM phentolamine (a2-adrenergic receptors) or 2 μM ketanserin (5-HT2A serotoninergic receptors). […] The filters are then washed with ice-cold buffer and the radioactivity retained on the filters was counted by liquid scintillation spectrometry.
(§2) The inhibition of specific binding of the radioligands by the tested drugs was analyzed to estimate the IC50 value by using the non-linear curve-fitting program Allfit (De Lean et al., Am. J. Physiol. 235, E97-E102, 1978). […]

For experiment [2], the target named is T2, 5-HT2A serotonergic receptors (Rattus norvegicus, UniProt P14842).
T2 construct: from tissue; host or cells: rat cerebral cortex membranes
T2 sequence (P14842 whole entry): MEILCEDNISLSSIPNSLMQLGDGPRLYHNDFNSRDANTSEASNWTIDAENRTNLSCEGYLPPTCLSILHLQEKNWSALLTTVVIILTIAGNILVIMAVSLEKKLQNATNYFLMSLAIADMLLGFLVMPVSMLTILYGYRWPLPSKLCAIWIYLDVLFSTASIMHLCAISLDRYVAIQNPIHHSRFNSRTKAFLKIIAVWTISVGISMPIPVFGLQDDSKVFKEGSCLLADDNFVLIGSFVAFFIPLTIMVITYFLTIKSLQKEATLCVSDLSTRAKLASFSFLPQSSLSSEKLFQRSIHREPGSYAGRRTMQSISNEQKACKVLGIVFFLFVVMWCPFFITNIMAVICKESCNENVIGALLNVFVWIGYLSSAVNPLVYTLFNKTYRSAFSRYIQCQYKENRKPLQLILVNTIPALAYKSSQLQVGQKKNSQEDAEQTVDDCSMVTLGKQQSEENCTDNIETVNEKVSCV
The experiment is described as follows: Radioreceptor binding, native 5-HT2A receptors, rat cerebral cortex ([3H]ketanserin). The conditions noted are these: Table 3A not given. The protocol:
as §1, §2

The values below come from patent publication US6399614B1, “1-(N-phenylaminoalkyl)piperazine derivatives substituted at position 2 of the phenyl ring” (Recordati S.A. Chemical and Pharmaceutical Company, priority 1997, dated 2002).

On to `COc1ccccc1N1CCN(CCN(C(=O)C2CCCCC2)c2ccccc2)CC1` [Compound A, 1-(N-phenyl-N-cyclohexylcarbonyl-2-aminoethyl)-4-(2-methoxyphenyl)piperazine, reference compound], for which the “fold less active than compound of Example 2, pre-synaptic model” value in experiment [1] (hypothermia model in mice) was “at least 10 fold”. In addition, the ED50 in experiment [1] is 0.221 mg/kg.
As to `COc1ccccc1N1CCN(CCN(C(=O)C2CCCCC2)c2ccccc2[N+](=O)[O-])CC1` [Example 2, 1-[N-(2-nitrophenyl)-N-cyclohexylcarbonyl-2-aminoethyl]-4-(2-methoxyphenyl) piperazine], the “selectivity for the 5-HT1A receptor versus the a2-adrenoceptors” value in the experiment with α2 adrenergic receptors is on record as “much more selective than compound A”. In addition, the “selectivity for the 5-HT1A receptor versus the 5-HT2A” value in experiment [2] is “much more selective than compound A”. In addition, the ED50 in experiment [1] was 0.02 mg/kg.
